Assay results published in the NIST ThermoML archive (doi:10.1021/je100577v).

Assay: xn = mol fraction of the nth substance listed
Settings: Liquid, Vibrating tube method

CC12CCC(CC1)C(C)(C)O2 [1,3,3-trimethyl-2-oxabicyclo[2.2.2]octane] + CCCO
mass density [kg/m3]
Settings | 20000 kPa | 25000 kPa | 30000 kPa | 35000 kPa | 40000 kPa
283.15 K, x1 = 0.0499 | 839.5 | 842.9 | 845.8 | 848.9 | 851.6
283.15 K, x1 = 0.1061 | 853.7 | 856.9 | 859.8 | 862.8 | 865.5
283.15 K, x1 = 0.2029 | 873.3 | 876.4 | 879.3 | 882.3 | 885
283.15 K, x1 = 0.3028 | 889.7 | 892.8 | 895.6 | 898.6 | 901.4
283.15 K, x1 = 0.3955 | 901.8 | 905 | 907.9 | 910.7 | 913.5
283.15 K, x1 = 0.4938 | 912.4 | 915.6 | 918.5 | 921.3 | 924
283.15 K, x1 = 0.5904 | 921.2 | 924.4 | 927.3 | 930.1 | 932.9
283.15 K, x1 = 0.7 | 929.6 | 932.8 | 935.7 | 938.5 | 941.2
283.15 K, x1 = 0.7915 | 935.7 | 938.9 | 941.7 | 944.6 | 947.3
283.15 K, x1 = 0.8954 | 941.2 | 944.3 | 947.2 | 950.1 | 952.8
283.15 K, x1 = 0.9332 | 942.9 | 946.1 | 949 | 951.8 | 954.5
283.15 K, x1 = 1 | 945.9 | 949.1 | 952 | 954.9 | 957.6
298.15 K, x1 = 0.0499 | 828.6 | 831.8 | 835.1 | 838.1 | 841.2
298.15 K, x1 = 0.1061 | 842.6 | 845.8 | 849 | 852 | 855
298.15 K, x1 = 0.2029 | 862 | 865.2 | 868.4 | 871.4 | 874.4
298.15 K, x1 = 0.3028 | 878.3 | 881.6 | 884.7 | 887.7 | 890.6
298.15 K, x1 = 0.3955 | 890.5 | 893.7 | 896.7 | 899.8 | 902.7
298.15 K, x1 = 0.4938 | 901 | 904.3 | 907.3 | 910.3 | 913.2
298.15 K, x1 = 0.5904 | 909.7 | 912.9 | 915.9 | 918.9 | 921.9
298.15 K, x1 = 0.7 | 917.9 | 921.1 | 924.2 | 927.1 | 930.1
298.15 K, x1 = 0.7915 | 923.9 | 927.1 | 930.2 | 933.2 | 936.1
298.15 K, x1 = 0.8954 | 929.4 | 932.6 | 935.7 | 938.8 | 941.6
298.15 K, x1 = 0.9332 | 931.1 | 934.3 | 937.3 | 940.3 | 943.3
298.15 K, x1 = 1 | 934.1 | 937.4 | 940.5 | 943.4 | 946.4
313.15 K, x1 = 0.0499 | 817.1 | 820.8 | 824.3 | 827.5 | 830.7
313.15 K, x1 = 0.1061 | 831 | 834.7 | 838.1 | 841.3 | 844.5
313.15 K, x1 = 0.2029 | 850.4 | 854 | 857.4 | 860.7 | 863.9
313.15 K, x1 = 0.3028 | 866.6 | 870.2 | 873.5 | 876.7 | 879.8
313.15 K, x1 = 0.3955 | 878.6 | 882.2 | 885.5 | 888.7 | 891.7
313.15 K, x1 = 0.4938 | 889.1 | 892.6 | 895.9 | 899 | 902.1
313.15 K, x1 = 0.5904 | 897.7 | 901.2 | 904.5 | 907.6 | 910.8
313.15 K, x1 = 0.7 | 905.8 | 909.3 | 912.6 | 915.8 | 918.9
313.15 K, x1 = 0.7915 | 911.8 | 915.3 | 918.6 | 921.8 | 924.9
313.15 K, x1 = 0.8954 | 917.3 | 920.8 | 924 | 927.3 | 930.5
313.15 K, x1 = 0.9332 | 919.1 | 922.5 | 925.9 | 929.1 | 932.2
313.15 K, x1 = 1 | 922.3 | 925.8 | 929.1 | 932.4 | 935.5
328.15 K, x1 = 0.0499 | 805.9 | 809.7 | 813.3 | 816.8 | 820.2
328.15 K, x1 = 0.1061 | 819.7 | 823.5 | 827.1 | 830.6 | 833.9
328.15 K, x1 = 0.2029 | 838.9 | 842.6 | 846.3 | 849.6 | 853.1
328.15 K, x1 = 0.3028 | 854.9 | 858.6 | 862.1 | 865.6 | 868.9
328.15 K, x1 = 0.3955 | 866.9 | 870.5 | 874 | 877.4 | 880.9
328.15 K, x1 = 0.4938 | 877.2 | 880.9 | 884.4 | 887.9 | 891.2
328.15 K, x1 = 0.5904 | 885.9 | 889.6 | 893.1 | 896.5 | 899.9
328.15 K, x1 = 0.7 | 894 | 897.7 | 901.2 | 904.6 | 908
328.15 K, x1 = 0.7915 | 899.9 | 903.7 | 907.2 | 910.5 | 913.9
328.15 K, x1 = 0.8954 | 905.5 | 909.3 | 912.7 | 916.2 | 919.5
328.15 K, x1 = 0.9332 | 907.3 | 911 | 914.5 | 917.9 | 921.3
328.15 K, x1 = 1 | 910.6 | 914.3 | 917.9 | 921.3 | 924.7
